Each molecule was assayed against T1, human NEP (Homo sapiens, UniProt P08473) (assay: In vitro enzyme inhibition assay at human NEP (fluorogenic peptide substrate)). Details: recombinant human NEP; 10 μM fluorogenic substrate Mca-D-Arg-Arg-Leu-Dap-(Dnp)-OH; 37° C.; 30 minute preincubation; read-out: pKi value at human NEP (converted).
T1 construct: purchased R&D Systems, Minneapolis, MN 1182-ZN
Format: biochemical
Method: In Vitro Assays for the Quantitation of Inhibitor Potencies (IC50) at Human and Rat NEP, and Human ACE
The inhibitory activities of compounds at human and rat neprilysin (EC 3.4.24.11; NEP) and human angiotensin converting enzyme (ACE) were determined using in vitro assays as described below.
Recombinant human NEP and recombinant human ACE were obtained commercially (R&D Systems, Minneapolis, MN, catalog numbers 1182-ZN and 929-ZN, respectively). The fluorogenic peptide substrate Mca-D-Arg-Arg-Leu-Dap-(Dnp)-OH (Medeiros et al. (1997) Braz. J. Med. Biol. Res. 30:1157-62; Anaspec, San Jose, CA) and Abz-Phe-Arg-Lys(Dnp)-Pro-OH (Araujo et al. (2000) Biochemistry 39:8519-8525; Bachem, Torrance, CA) were used in the NEP and ACE assays respectively.
The assays were performed in 384-well white opaque plates at 37° C. using the fluorogenic peptide substrates at a concentration of 10 μM in Assay Buffer (NEP: 50 mM HEPES, pH 7.5, 100 mM NaCl, 0.01% polyethylene glycol sorbitan monolaurate (Tween-20), 10 μM ZnSO4; ACE: 50 mM HEPES, pH 7.5, 100 mM NaCl, 0.01% Tween-20, 1 μM ZnSO4).
Test compounds were assayed over the range of concentrations from 10 μM to 20 pM. Test compounds were added to the enzymes and incubated for 30 minute at 37° C. prior to initiating the reaction by the addition of substrate. Reactions were terminated after 20 minutes of incubation at 37° C. by the addition of glacial acetic acid to a final concentration of 3.6% (v/v).
Plates were read on a fluorometer with excitation and emission wavelengths set to 320 nm and 405 nm, respectively. Inhibition constants were obtained by nonlinear regression of the data using the equation (GraphPad Software, Inc., San Diego, CA): ν=ν0/[1+(I/K′)] where ν is the reaction rate, ν0 is the uninhibited reaction rate, I is the inhibitor concentration and K′ is the apparent inhibition constant.

T1 sequence (P08473 52-750 limits assumed): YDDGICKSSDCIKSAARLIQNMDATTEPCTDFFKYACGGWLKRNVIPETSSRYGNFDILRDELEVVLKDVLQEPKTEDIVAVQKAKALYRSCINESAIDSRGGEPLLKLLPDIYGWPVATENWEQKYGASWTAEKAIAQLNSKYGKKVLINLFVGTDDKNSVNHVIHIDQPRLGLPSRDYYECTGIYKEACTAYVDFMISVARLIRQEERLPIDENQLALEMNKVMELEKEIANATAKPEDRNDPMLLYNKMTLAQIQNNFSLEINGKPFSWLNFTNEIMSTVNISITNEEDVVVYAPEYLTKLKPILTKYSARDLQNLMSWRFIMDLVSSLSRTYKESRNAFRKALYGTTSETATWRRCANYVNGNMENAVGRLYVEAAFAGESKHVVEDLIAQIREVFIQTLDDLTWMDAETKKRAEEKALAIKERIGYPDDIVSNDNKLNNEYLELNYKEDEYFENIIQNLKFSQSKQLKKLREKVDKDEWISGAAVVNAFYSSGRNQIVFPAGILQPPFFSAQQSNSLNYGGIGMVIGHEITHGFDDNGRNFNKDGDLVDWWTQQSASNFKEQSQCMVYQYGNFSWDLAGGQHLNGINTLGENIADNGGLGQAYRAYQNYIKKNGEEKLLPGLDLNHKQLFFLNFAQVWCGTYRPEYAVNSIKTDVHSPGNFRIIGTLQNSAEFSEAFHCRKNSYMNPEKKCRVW

Compound	Ki [nM]
CCOC[C@](C)(C[C@@H](Cc1ccc(-c2cc(Cl)ccc2F)cc1)NC(=O)c1c[nH]nn1)C(=O)O [Example 2O, (2S,4R)-5-(5′-Chloro-2′-fluoro-biphenyl-4-yl)-2-ethoxymethyl-2-methyl-4-[(1H-[1,2,3]triazole-4-carbonyl)amino]pentanoic Acid]	≤ 1
CCc1cc(C(=O)N[C@H](Cc2ccc(-c3cc(Cl)ccc3F)cc2)C[C@@](C)(CO)C(=O)O)on1 [Example 6H]	≤ 1
CCOC[C@](C)(C[C@@H](Cc1ccc(-c2ccccc2)cc1)NC(=O)c1c[nH]nn1)C(=O)O [Example 1I, (2S,4R)-5-Biphenyl-4-yl-2-ethoxymethyl-2-methyl-4-[(1H-[1,2,3]triazole-4-carbonyl)amino]pentanoic Acid]	1 to 3.16
COc1ccccc1-c1ccc(C[C@H](C[C@@](C)(CO)C(=O)O)NC(=O)c2c[nH]nn2)cc1 [Example 2A, (2S,4R)-2-Hydroxymethyl-5-(2′-methoxybiphenyl-4-yl)-2-methyl-4-[(1H-[1,2,3]triazole-4-carbonyl)amino]pentanoic Acid]	1 to 3.16
COc1cc(C(=O)N[C@H](Cc2ccc(-c3cc(Cl)ccc3F)cc2)C[C@@](C)(CO)C(=O)O)on1 [Example 6G, (2S,4R)-5-(5′-Chloro-2′-fluorobiphenyl-4-yl)-2-hydroxymethyl-4-[(3-methoxyisoxazole-5-carbonyl)amino]-2-methylpentanoic Acid]	≤ 1
C[C@@](CO)(C[C@@H](Cc1ccc(-c2cc(Cl)ccc2F)cc1)NC(=O)c1coc(=O)[nH]1)C(=O)O [Example 5C, (2S,4R)-5-(5′-Chloro-2′-fluorobiphenyl-4-yl)-2-hydroxymethyl-2-methyl-4-[(2-oxo-2,3-dihydro-oxazole-4-carbonyl)amino]pentanoic Acid]	≤ 1
CCOc1cc(C(=O)N[C@H](Cc2ccc(-c3cc(Cl)ccc3F)cc2)C[C@@](C)(COC)C(=O)O)[nH]n1 [Example 7D, (2S,4R)-5-(5′-Chloro-2′-fluorobiphenyl-4-yl)-4-[(5-ethoxy-2H-pyrazole-3-carbonyl)-amino]-2-methoxymethyl-2-methylpentanoic Acid]	1 to 3.16
COc1cc(C(=O)N[C@H](Cc2ccc(-c3cccc(Cl)c3)cc2)C[C@@](C)(CO)C(=O)O)on1 [Example 6A, (2S,4R)-5-(3′-Chlorobiphenyl-4-yl)-2-hydroxymethyl-4-[(3-methoxyisoxazole-5-carbonyl)amino]-2-methylpentanoic Acid]	≤ 1
CC(C)OC[C@](C)(C[C@@H](Cc1ccc(-c2cc(Cl)ccc2F)cc1)NC(=O)c1cnn[nH]1)C(=O)O [Example 2R, (2S,4R)-5-(5′-Chloro-2′-fluorobiphenyl-4-yl)-2-isopropoxymethyl-2-methvl-4-[(3H-[1,2,3]triazole-4-carbonyl)amino]pentanoic Acid]	≤ 1
COn1cc(C(=O)N[C@H](Cc2ccc(-c3cc(Cl)ccc3F)cc2)C[C@@](C)(CO)C(=O)O)nn1 [Example 4B, (2S,4R)-5-(5′-Chloro-2′-fluorobiphenyl-4-yl)-2-hydroxymethyl-4-[(1-methoxy-1H-[1.2.3]triazole-4-carbonyl)amino]-2-methylpentanoic Acid]	≤ 1
COC[C@](C)(C[C@@H](Cc1ccc(-c2cc(Cl)ccc2F)cc1)NC(=O)c1cc(O)no1)C(=O)O [Example 6K, (2S,4R)-5-(5′-Chloro-2′-fluorobiphenyl-4-yl)-4-[(3-hydroxyisoxazole-5-carbonyl)amino]-2-methoxymethyl-2-methylpentanoic Acid]	1 to 3.16
COc1cc(C(=O)N[C@H](Cc2ccc(-c3cc(Cl)ccc3F)cc2)C[C@@](C)(CO)C(=O)O)n[nH]1 [Example 7E, (2S,4R)-5-(5′-Chloro-2′-fluorobiphenyl-4-yl)-2-hydroxymethyl-4-[(5-methoxy-1H-pyrazole-3-carbonyl)amino]-2-methylpentanoic Acid]	≤ 1
CCOn1cc(C(=O)N[C@H](Cc2ccc(-c3cc(Cl)ccc3F)cc2)C[C@@](C)(CO)C(=O)O)nn1 [Example 4C, (2S,4R)-5-(5′-Chloro-2′-fluorobiphenyl-4-yl)-4-[(1-ethoxy-1H-[1,2,3]triazole-4-carbonyl)-amino]-2-hydroxymethyl-2-methylpentanoic Acid]	≤ 1
CCCc1cc(C(=O)N[C@H](Cc2ccc(-c3cc(Cl)ccc3F)cc2)C[C@@](C)(CO)C(=O)O)on1 [Example 6J, (2S,4R)-5-(5′-Chloro-2′-fluorobiphenyl-4-yl)-2-hydroxymethyl-2-methyl-4-[(3-propylisoxazole-5-carbonyl)amino]pentanoic Acid]	≤ 1
CC(=O)OC[C@](C)(C[C@@H](Cc1ccc(-c2ccccc2)cc1)NC(=O)c1cnn[nH]1)C(=O)O [Example 1D, (2S,4R)-2-Acetoxymethyl-5-biphenyl-4-yl-2-methyl-4-[(3H-[1,2,3]triazole-4-carbonyl)amino]pentanoic Acid]	≤ 1
CC(=O)c1cc(C(=O)N[C@H](Cc2ccc(-c3cc(Cl)ccc3F)cc2)C[C@@](C)(CO)C(=O)O)[nH]n1 [Example 8A, (2S,4R)-4-[(5-Acetyl-2H-pyrazole-3-carbonyl)amino]-5-(5′-chloro-2′-fluorobiphenyl-4-yl)-2-hydroxymethyl-2-methylpentanoic Acid]	≤ 1
COC[C@](C)(C[C@@H](Cc1ccc(-c2ccccc2)cc1)NC(=O)c1c[nH]nn1)C(=O)O [Example 1J, (2S,4R)-5-Biphenyl-4-yl-2-methoxymethyl-2-methyl-4-[(1H-[1,2,3]triazole-4-carbonyl)amino]pentanoic Acid]	1 to 3.16
CCOc1cc(C(=O)N[C@H](Cc2ccc(-c3cccc(Cl)c3)cc2)C[C@@](C)(CO)C(=O)O)n[nH]1 [Example 7A, (2S,4R)-5-(3′-Chlorobiphenyl-4-yl)-4-[(5-ethoxy-1H-pyrazole-3-carbonyl)amino]-2-hydroxymethyl-2-methylpentanoic Acid]	≤ 1
C[C@@](CO)(C[C@@H](Cc1ccc(-c2cccc(C#N)c2)cc1)NC(=O)c1c[nH]nn1)C(=O)O [Example 2H, (2S,4R)-5-(3′-Cyanobiphenyl-4-yl)-2-hydroxymethyl-2-methyl-4-[(1H-[1,2,3]triazole-4-carbonyl)amino]pentanoic Acid]	3.16 to 10
C[C@@](CO)(C[C@@H](Cc1ccc(-c2cc(Cl)ccc2F)cc1)NC(=O)c1c[nH]c(=O)o1)C(=O)O [Example 5D, (2S,4R)-5-(5′-Chloro-2′-fluorobiphenyl-4-yl)-2-hydroxymethyl-2-methyl-4-[(2-oxo-2,3-dihydro-oxazole-5-carbonyl)amino]pentanoic Acid]	≤ 1
CCCCCOC[C@](C)(C[C@@H](Cc1ccc(-c2cc(Cl)ccc2F)cc1)NC(=O)c1cnn[nH]1)C(=O)O [Example 2Q, (2S,4R)-5-(5′-Chloro-2′-fluorobiphenyl-4-yl)-2-methyl-2-pentyloxymethyl-4-[(3H-[1,2,3]triazole-4-carbonyl)amino]pentanoic Acid]	1 to 3.16
CCOC[C@](C)(C[C@@H](Cc1ccc(-c2cccc(Cl)c2)cc1)NC(=O)c1cc(O)no1)C(=O)O [Example 6M]	≤ 1
CCOC[C@](C)(C[C@@H](Cc1ccc(-c2cc(Cl)ccc2F)cc1)NC(=O)c1cc(CC)no1)C(=O)O [Example 6O, (2S,4R)-5-(5′-Chloro-2′-fluorobiphenyl-4-yl)-2-ethoxymethyl-4-[(3-ethylisoxazole-5-carbonyl)amino]-2-methylpentanoic Acid]	≤ 1
CCOC[C@](C)(C[C@@H](Cc1ccc(-c2cc(Cl)ccc2F)cc1)NC(=O)c1cc(O)no1)C(=O)O [Example 6N, (2S,4R)-5-(5′-Chloro-2′-fluorobiphenyl-4-yl)-2-ethoxymethyl-4-[(3-hydroxyisoxazole-5-carbonyl)amino]-2-methylpentanoic Acid]	≤ 1
C[C@@](COCCO)(C[C@@H](Cc1ccc(-c2cccc(Cl)c2)cc1)NC(=O)c1c[nH]nn1)C(=O)O [Example 2L, (2S,4R)-5-(3′-Chlorobiphenyl-4-yl)-2-(2-hydroxyethoxymethyl)-2-methyl-4-[(1H-[1,2,3]triazole-4-carbonyl)amino]pentanoic Acid]	≤ 1
Cc1ccc(Cl)cc1-c1ccc(C[C@H](C[C@@](C)(CO)C(=O)O)NC(=O)c2c[nH]nn2)cc1 [Example 2G, (2S,4R)-5-(5′-Chloro-2′-methylbiphenyl-4-yl)-2-hydroxymethyl-2-methyl-4-[(1H-[1,2,3]triazole-4-carbonyl)amino]pentanoic Acid]	≤ 1
CC(C)CC(=O)OC[C@](C)(C[C@@H](Cc1ccc(-c2ccccc2)cc1)NC(=O)c1cnn[nH]1)C(=O)O [Example 1F, (2S,4R)-5-Biphenyl-4-yl-2-methyl-2-(3-methylbutyryloxymethyl)-4-[(3H-[1,2,3]triazole-4-carbonyl)amino]pentanoic Acid]	≤ 1

From patent US11919888B2, “Neprilysin inhibitors” (THERAVANCE BIOPHARMA R&D IP, LLC, priority 2012, dated 2024)
